According to publication PMC7200681, “The calcitonin-like system is an ancient regulatory system of biomineralization” (Scientific Reports, 2020):

Tests used:
Set-up in all cases: species or system Mytilus galloprovincialis
[1] = system: alpha-carbonic anhydrase (CA) esterase activity in mussel mantle edge; assay: Esterase (carbonic anhydrase) activity in mantle after ex-vivo incubation; conditions: after exposure to CALCIIa 10 μM or ouabain 2 mM; 4-Nitrophenyl acetate substrate; n = 6
Experimental: (§1) (A) Esterase activity and (B) Acid phosphatase activity. Enzyme activity was quantified in protein extracts from the mantle of control or challenged samples that were incubated with the mussel CALCIIa peptide. Values represent the mean ± SEM (CA, n = 6 and TRAP, n = 10) performed in duplicate. Prism GraphPad v5 software was used to assess the significance of the differences between the groups using One-way Anova and Tukey’s multiple comparison test. […] C - control; P - peptide (10 μM); O - ouabain (2 mM), OP - ouabain (2 mM) and peptide (10 μM); PreOP - pre stimulation for 1 hour with the peptide and 4 hours incubation with OP.
(§2) The posterior mantle edge region of the Mediterranean mussel was collected and washed in culture medium. The composition of the culture medium was as described in[91] […] The culture medium was supplemented with heat inactivated 2% FBS (SIGMA-ALDRICH), 0.1% penicillin: streptomycin antibiotic mix (10.000 U:10 mg/ml, SIGMA-ALDRICH) and 250 μg/ml sterile filtered 1:100 amphotericin B solution (Sigma-Aldrich). The posterior mantle edge from mussels was collected into culture medium and cut into fragments of approximately 1–2 mm in length. […]
Esterase activity in the mussel posterior mantle edge (n = 6/experimental group) was quantified using a colorimetric assay that measures the conversion of the substrate 4-Nitrophenyl acetate to p-nitrophenolate[92]. […]

mussel mantle edge = assay: Ex-vivo incubation of mantle edge fragments, calcium quantification by MP-AES; conditions: 4 h at 19-20 °C; CALCIIa 10 μM or ouabain 2 mM alone; MP-AES at 393.366 nm; mean ± SEM; control 400.67 ±13.83 ppm; SEM
Experimental: Figure 7 Effect of the mussel calcitonin-like peptide on (A) calcium (ppm) concentration in the mantle edge and (B) calcium uptake by mantle cells of the Mediterranean mussel. (A) The quantity of calcium (ppm) present in the mantle edge after mussel CALCIIa peptide incubation was measured using a Microwave Plasma-Atomic Emission Spectrometer (MP-AES, Agilent) at 393.366 nm. A standard curve for calcium was performed before analysing the samples. In vitro mantle assays with CALCIIa peptide and with ouabain and control (culture medium and mantle) were repeated on at least 3 independent occasions. For each assay at least ten replicates were performed and the mantle edge distal to the umbo was used (one mantle fragment per replica). Prism GraphPad v5 software was used to assess the significance of differences between the groups using a One-way Anova and Tukey’s multiple comparison test. […] C - control (no peptide or ouabain); P - peptide (10 μM); O - ouabain (2 mM), OP - ouabain (2 mM) and peptide (10 μM); PreOP - pre -stimulation for 1 hour with the peptide followed by 4 hours incubation with OP. (B) Digital photographs of the mussel mantle cells in the presence (CALCIIa, 10 μM) or absence (control) of the mussel CALCIIa peptide. Calcium ions were stained with 50 mM of Calcein (green) and cell nuclei (blue) with DAPI (Acros Organics). An increase in cellular fluorescence represents an increase in calcium uptake. Fluorescence of the CALCIIa peptide stimulated cells was 1.9 times higher than the control. The average mantle cell size was 3–4 μm and fluorescent images were taken using a Leica DM IL microscope coupled to a Visicam HDMI 6 digital camera and photographs were analysed using ImageJ software (v. 1.52a) to calculate the fluorescence intensity and for image overlay. The scale bar is indicated.
The posterior mantle edge region of the Mediterranean mussel was collected and washed in culture medium. The composition of the culture medium was as described in[91] […]

[2] = system: acid phosphatase (AP) activity in mussel mantle edge; assay: Acid phosphatase (TRAP) activity in mantle after ex-vivo incubation; conditions: after exposure to CALCIIa 10 μM or ouabain 2 mM; TRAP assay, pNPP, pH 5.3; p < 0.05
Experimental: as §1, §2
Acid phosphatase activity of the mantle protein extracts (n = 6/ group) was determined using 96 well-plates (GREINER, Germany) and a tartrate resistant acid phosphatase (TRAP) assay as described in[93].

Compound: C[C@@H]1O[C@@H](O[C@H]2C[C@@H](O)[C@]3(CO)[C@H]4[C@H](O)C[C@]5(C)[C@@H](C6=CC(=O)OC6)CC[C@]5(O)[C@@H]4CC[C@]3(O)C2)[C@H](O)[C@H](O)[C@H]1O [Ouabain, ouabain]
- CA esterase activity in mantle edge (in words) [1]: neither of the bivalve CALCs or ouabain modified
- Calcium in the mantle edge after incubation (mussel mantle edge): 588.71 ± 42.92 ppm
- Acid phosphatase (AP) activity in mantle edge compared to control (in words) [2]: significantly decreased
